{
  "source": "patent US7485688B2",
  "about": "“Water and oil producing composition” (priority 2004, dated 2009)",
  "origin": "cited, not measured here",
  "data": [
    {"test_system": "rats or mice", "details": "acute oral toxicity in rats or mice", "units": {"LD50": "mg/kg"}, "values": [
      {"smiles": "CC(=O)OC(C)(N=NC(C)(OC(C)=O)c1ccccc1)c1ccccc1", "note": "(centres unmarked) [1,1-azobis(1-acetoxy-1-phenylethane)]", "LD50": "≥ 5000"},
      {"smiles": "N#CC1(N=NC2(C#N)CCCCC2)CCCCC1", "note": "[1,1′-azobis(2-cyclohexane-1-carbonitrile)]", "LD50": 11800},
      {"smiles": "CC(C)CC(C)(C#N)N=NC(C)(C#N)CC(C)C", "note": "(centres unmarked) [2,2′-azobis(2,4-dimethylvaleronitrile)]", "LD50": 6000},
      {"smiles": "CCC(C)(C#N)N=NC(C)(C#N)CC", "note": "(centres unmarked) [2,2′-azobis-2-methylbutyronitrile]", "LD50": 1316},
      {"smiles": "COC(=O)C(C)(C)N=NC(C)(C)C(=O)OC", "note": "[dimethyl 2,2′-azobisisobutyrate]", "LD50": 2369}
    ]}
  ]
}
